Values quoted from earlier work in patent publication US20170101350A1, “SYNTHETIC ACID COMPOSITIONS AND USES THEREOF” (priority 2014, published 2017).

Settings: death in 2-3 minutes

Compound: Cl [hydrogen chloride gas, hydrogen chloride]
- levels at which death can occur: 1300-2000 ppm
